One assay deals with HepG2 cell line. Put plainly: Growth of HepG2 cells by BrdU incorporation. In kind it is cell-based, human. As to the method:
HepG2 cells were treated with 100 μM SAMe, 10 μM OCA individually or combined for 24 hours. Growth was determined using BrdU incorporation. SAMe was mixed in saline and OCA was mixed in DMSO (0.1% final), which yielded the same values. As shown in Table 1 and FIG. 2, while OCA alone induced growth of the cancer cell line, SAMe inhibited growth of the cancer cell line even in the presence of OCA. SAMe, OCA and SAMe+OCA were 58.65%, 124.05% and 89.5%, respectively, of their respective controls.
(§1) HepG2 (immortalized cell line consisting of human liver carcinoma cells) cells were treated with 100 μM SAMe, 10 nM GW4064 individually or combined for 24 hours. Growth was determined using BrdU incorporation. SAMe was mixed in saline and GW4064 was mixed in DMSO (0.1% final), which yielded the same values. As shown in Table 2 and FIG. 3, while GW4064 alone induced growth of the cancer cell line, SAMe inhibited growth of the cancer cell line even in the presence of GW4064. SAMe, GW4064 and SAMe+GW4064 were 75.52%, 155.70% and 116.97%, respectively, of their respective controls.
as §1, with “Tropifexor” for “GW4064”, “Tropifexor.” for “GW4064.”, “SAMe+Tropifexor” for “SAMe+GW4064”, “151.04%” for “155.70%”, “114.77%,” for “116.97%,”

Assay [1] concerns MzChA-1 (cholangiocarcinoma) cells or HepG2 cells. Put plainly: xenograft mice models, tumor volume. To be noted: SAMe 100 mg/kg/day orally. In kind it is in vivo. As for the experimental part:
Mice were injected with MzChA-1 (cholangiocarcinoma) cells or HepG2 (immortalized cell line consisting of human liver carcinoma cells) cells. In mice treated with OCA, 30/mg/kg/day of OCA was administered orally. In mice treated with SAMe, 100 mg/kg/day was administered orally.

Another assay concerns MAFG. Put plainly: expression of the oncogene MAFG.
Setting [2] is: HepG2, 10 μM OCA in DMSO, 24 hours.
The mark [3] stands for this setting: HepG2, 100 μM SAMe in saline, 24 hours.
Where [4] appears, read: HepG2, 100 μM SAMe, 24 hours (Example 2).
[5] abbreviates: HepG2, 10 nM Tropifexor, 24 hours.
The mark [6] stands for this setting: HepG2, 10 nM Tropifexor, 24 hours, listed as Tropi.

Several values for one entry are separate records, joined by “and”; a condition that tells them apart may be missing. Equal entries are not always repeated.

Consider `CC[C@H]1[C@@H](O)[C@@H]2[C@H](CC[C@]3(C)[C@@H]([C@H](C)CCC(=O)O)CC[C@@H]23)[C@@]2(C)CC[C@@H](O)C[C@@H]12` [OCA, 6α-ethyl-chenodeoxycholic acid], for which, in the assay on HepG2 cell line (setting [2]), the “BrdU incorporation, Ave” value turned out to be 0.18; the “BrdU incorporation, single readings” value was 0.181 and 0.175 and 0.202 and 0.186 and 0.162 and 0.177. Moreover, in the assay with HepG2 cell line (HepG2, 10 μM OCA, 24 hours), the “BrdU Incorporation, % of respective controls” value (from here on “BrdU Incorporation, %”) is on record as 124.05%.

In the case of `C[S+](CC[C@H](N)C(=O)O)C[C@H]1O[C@@H](n2cnc3c(N)ncnc32)[C@H](O)[C@@H]1O` (stereo partly drawn) [SAMe, S-adenosylmethionine], the “tumor volume versus control group” value in assay [1] is “lower than the control group”. In addition, in the assay on HepG2 cell line (setting [3]), the “BrdU incorporation, Ave” value is given as 0.09; the “BrdU incorporation, single readings” value is 0.103 and 0.089 and 0.101 and 0.055 and 0.075. Moreover, in the assay with HepG2 cell line (HepG2, 100 μM SAMe, 24 hours (Example 1)), the “BrdU Incorporation, %” value is listed as 58.65%. In the assay with HepG2 cell line (setting [4]), the “BrdU Incorporation OD540 nm, AVE” value was determined as 0.07287; the “BrdU Incorporation OD540 nm, single readings” value is 0.065 and 0.066 and 0.064 and 0.072 and 0.059 and 0.113 and 0.08; the “BrdU Incorporation, %” value worked out at 75.52%. For the same compound, the “effect on expression of MAFG” value with MAFG is listed as “decreases expression of MAFG”.

Consider `O=C(O)c1cc(F)c2nc(N3[C@@H]4CC[C@H]3C[C@@H](OCc3c(-c5ccccc5OC(F)(F)F)noc3C3CC3)C4)sc2c1` [Tropifexor], for which, in the assay with HepG2 cell line (setting [5]), the “BrdU Incorporation OD540 nm, AVE” value stood at 0.1457 and the “BrdU Incorporation, %” value came to 151.04%. Further, in the assay on HepG2 cell line (setting [6]), the “BrdU Incorporation OD540 nm, single readings” value was 0.153 and 0.121 and 0.134 and 0.125 and 0.105 and 0.173 and 0.202; the “BrdU Incorporation, %” value was 151.0363%.

In the case of `CC(C)c1onc(-c2c(Cl)cccc2Cl)c1COc1ccc(/C=C/c2cccc(C(=O)O)c2)c(Cl)c1` [GW4064], in the assay with HepG2 cell line (HepG2, 10 nM GW4064, 24 hours), the “BrdU Incorporation OD540 nm, AVE” value is on record as 0.1502 and the “BrdU Incorporation, %” value came out at 155.70%. Also, in the assay with HepG2 cell line (HepG2, 10 nM GW4064, 24 hours, listed as GW), the “BrdU Incorporation, %” value worked out at 155.6995%.

The values are drawn from patent US20210121493A1, “METHODS FOR TREATING LIVER DISEASES” (Cedars-Sinai Medical Center, priority 2017, published 2021).
